Data from US20060035889A1, “Treatment for methamphetamine addiction and reduction of methamphetamine use using serotonin antagonists” (priority 2004, published 2006).

Key:
METH-conditioned rats = assay: METH-induced conditioned place preference (CPP) with simultaneous motor sensitization; type: in vivo, rat
Excerpt: The CPP box (Accuscan, Columbus, Ohio) consists of three Plexiglas compartments, each with distinct visual and tactile cues (on one side, patterned floor with object attached and horizontally striped wall; on the opposite side, smooth floor with no object and vertically striped walls; center—uniformly white floor and walls). The center compartment can be separated from the left and right compartments by removable guillotine doors. Motor activity in three dimensional space, and time spent, in each compartment is detected by two sets of photobeams set at different heights from the floor. Drug conditioning is performed by administering METH to the rat while it is in one compartment, and on the alternating day, saline is administered while the rat is confined to the opposite compartment. Confinement was achieved by blocking access to other compartments using the guillotine door. The center compartment is not seen by the rat during conditioning, and all conditioning sessions last for 45 min.
The inventors have determined that the number of METH-pairings, and the dose of METH, dictate the strength of the drug-environment association (i.e., the magnitude of salience attribution). The test for CPP is determined in a METH-free state (i.e., at least 48 hr after that last METH pairing), at which time the rats are placed in the center compartment and allowed free access to all compartments for 30 min, and the time spent in each compartment is the index of preference. The inventors have determined that the number of METH-pairings, and the dose of METH, dictate the strength of the drug-environment association (i.e., the magnitude of salience attribution) and thus the amount of time spent in the compartment previously paired with METH (FIG. 7), as well as persistence of this effect (i.e., how long it lasts; FIG. 8A). METH-induced motor sensitization can be assessed in several ways, including assessing the capacity of the rat to express an enhanced motor response to an acute METH challenge (FIGS. 9 & 10A).
To efficiently apply this approach to testing of 5-HT2A/2C antagonists, we determined that single pairing protocols of the CPP paradigm can be used to predict efficacy outcomes of 5-HT2A/2C antagonists in long-term tests on these drugs evaluating their capacity to nullify the persistent enhanced salience induced by METH. […] Thus, these protocols should help predict the capacity of novel therapeutic targets to halt a common problem of drug relapse, i.e., the ability of re-exposure to drugs like METH to immediately reinstate their abuse.

α1 = details: read-out: receptor affinity (Ki) α1; cited from earlier work
α2 = details: read-out: receptor affinity (Ki) α2; cited from earlier work
5-HT2C = biological target: T1, 5-HT2C (Homo sapiens, UniProt P28335); details: read-out: receptor affinity (Ki) 5-HT2C; cited from earlier work
T1 sequence (P28335 33-458): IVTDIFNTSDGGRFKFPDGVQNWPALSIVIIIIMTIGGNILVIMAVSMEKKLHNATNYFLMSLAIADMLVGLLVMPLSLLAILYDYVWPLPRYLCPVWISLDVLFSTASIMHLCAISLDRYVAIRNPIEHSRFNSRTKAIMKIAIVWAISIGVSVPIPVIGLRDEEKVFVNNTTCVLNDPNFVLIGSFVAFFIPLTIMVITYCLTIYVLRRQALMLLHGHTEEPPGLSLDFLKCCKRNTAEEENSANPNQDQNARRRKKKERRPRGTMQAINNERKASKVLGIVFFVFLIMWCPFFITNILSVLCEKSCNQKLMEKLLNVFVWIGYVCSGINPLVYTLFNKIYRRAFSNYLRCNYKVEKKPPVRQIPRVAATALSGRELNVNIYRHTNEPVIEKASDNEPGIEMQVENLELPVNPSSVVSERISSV

5-HT3 = biological target: T2, 5-HT3 (Homo sapiens, UniProt P46098); details: read-out: receptor affinity (Ki) 5-HT3; cited from earlier work
T2 sequence (P46098 24-478): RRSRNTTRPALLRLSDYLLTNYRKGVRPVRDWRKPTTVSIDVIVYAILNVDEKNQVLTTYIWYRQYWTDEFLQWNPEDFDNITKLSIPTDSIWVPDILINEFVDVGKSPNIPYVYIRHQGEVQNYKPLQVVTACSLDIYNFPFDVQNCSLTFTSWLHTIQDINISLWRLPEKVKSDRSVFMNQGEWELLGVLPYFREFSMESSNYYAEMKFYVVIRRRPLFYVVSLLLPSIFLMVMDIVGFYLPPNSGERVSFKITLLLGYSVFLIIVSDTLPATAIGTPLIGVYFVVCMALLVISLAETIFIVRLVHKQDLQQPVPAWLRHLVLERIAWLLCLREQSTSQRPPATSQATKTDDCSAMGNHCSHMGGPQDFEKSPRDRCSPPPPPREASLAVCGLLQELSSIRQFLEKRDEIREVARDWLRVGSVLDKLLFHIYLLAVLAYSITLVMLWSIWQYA

D2 = D2 (Homo sapiens, UniProt P14416); details: read-out: receptor affinity (Ki) D2; cited from earlier work
D2, sequence (P14416 whole entry): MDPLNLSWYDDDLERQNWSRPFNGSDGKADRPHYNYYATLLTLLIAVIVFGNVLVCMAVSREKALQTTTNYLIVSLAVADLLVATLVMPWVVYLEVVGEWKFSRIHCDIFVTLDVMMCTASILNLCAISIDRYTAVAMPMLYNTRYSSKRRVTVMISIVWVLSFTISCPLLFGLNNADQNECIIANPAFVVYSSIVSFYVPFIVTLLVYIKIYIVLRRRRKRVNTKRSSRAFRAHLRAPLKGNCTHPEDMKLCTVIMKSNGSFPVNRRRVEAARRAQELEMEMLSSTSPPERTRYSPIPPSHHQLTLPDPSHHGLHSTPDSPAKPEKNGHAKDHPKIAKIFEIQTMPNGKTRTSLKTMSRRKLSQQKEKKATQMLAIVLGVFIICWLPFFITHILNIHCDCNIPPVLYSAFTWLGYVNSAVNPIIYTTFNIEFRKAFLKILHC

CN1CCN2c3ncccc3Cc3ccccc3[C@@H]2C1 (racemic) [mirtazapine, 1,2,3,4,10,14b-hexahydro-2-methyl-pyrazino[2,1-a]pyrido[2,3-c]benzazepine]
preference to the place previously paired with METH (CPP expression) (METH-conditioned rats; 3 pairings 1 mg/kg ip METH, ten once-daily 5 mg/kg ip mirtazapine during withdrawal, day 20 (FIG. 8B)): completely reverse | associated motor sensitization (number of rears) (METH-conditioned rats; mirtazapine during METH withdrawal, METH challenge day 22 (FIG. 10B)): completely reverse | ability of subsequent METH pairings to induce CPP (reinstatement) (METH-conditioned rats; repeated mirtazapine during withdrawal, day 25 (FIG. 12)): renders ineffective | CPP expression after single pairing of 1.0 mg/kg METH (METH-conditioned rats; single home cage injection 0.5, 1.0 or 5.0 mg/kg mirtazapine 24 h before test (FIG. 11)): reversal of METH-induced CPP | Ki (α1): 500 nM | Ki (α2): 65 nM | Ki (5-HT2C): 12 nM | Ki (5-HT3): 8 nM | Ki (D2): > 1000 nM
